Experimental data taken from the NIST ThermoML archive (doi:10.1021/acs.jced.6b00536).
± gives the expanded uncertainty stated by the source.

Test: xn = mol fraction of the nth substance listed
Conditions: Gas, Frequency=0.05 MHz, Single path-length method, x2 = 0.058

FC(F)(F)C(F)(F)C(F)(F)F [octafluoropropane] + N#N
Conditions	speed of sound [m/s]
293.32 K, 0.09882 kPa	117.97 ± 0.09
293.32 K, 0.119 kPa	117.53 ± 0.09
293.32 K, 0.1196 kPa	117.53 ± 0.09
293.32 K, 0.139 kPa	117.08 ± 0.09
293.32 K, 0.1393 kPa	117.06 ± 0.09
293.32 K, 0.1596 kPa	116.59 ± 0.09
293.32 K, 0.1599 kPa	116.61 ± 0.1
293.32 K, 0.1779 kPa	116.19 ± 0.1
293.32 K, 0.1782 kPa	116.19 ± 0.1
293.32 K, 0.1958 kPa	115.78 ± 0.1
293.32 K, 0.1967 kPa	115.77 ± 0.1
293.32 K, 0.207 kPa	115.54 ± 0.1
293.32 K, 0.2174 kPa	115.26 ± 0.1
293.32 K, 0.218 kPa	115.26 ± 0.1
293.32 K, 0.2185 kPa	115.27 ± 0.1
293.32 K, 0.2573 kPa	114.33 ± 0.1
293.32 K, 0.2766 kPa	113.86 ± 0.1
293.32 K, 0.2771 kPa	113.88 ± 0.1
293.32 K, 0.2946 kPa	113.41 ± 0.1
293.32 K, 0.2954 kPa	113.39 ± 0.1
293.32 K, 0.3175 kPa	112.86 ± 0.1
293.32 K, 0.3315 kPa	112.52 ± 0.09
298.38 K, 0.1005 kPa	119.04 ± 0.09
298.38 K, 0.121 kPa	118.61 ± 0.09
298.38 K, 0.1413 kPa	118.17 ± 0.09
298.38 K, 0.1627 kPa	117.7 ± 0.09
298.38 K, 0.1814 kPa	117.31 ± 0.09
298.38 K, 0.2001 kPa	116.91 ± 0.09
298.38 K, 0.2106 kPa	116.69 ± 0.09
298.38 K, 0.2213 kPa	116.42 ± 0.09
298.38 K, 0.222 kPa	116.42 ± 0.09
298.38 K, 0.262 kPa	115.52 ± 0.09
298.38 K, 0.282 kPa	115.07 ± 0.09
298.38 K, 0.3011 kPa	114.61 ± 0.09
298.38 K, 0.3239 kPa	114.1 ± 0.09
298.38 K, 0.338 kPa	113.78 ± 0.09
303.42 K, 0.1021 kPa	120.1 ± 0.09
303.42 K, 0.1231 kPa	119.68 ± 0.09
303.42 K, 0.1437 kPa	119.25 ± 0.09
303.42 K, 0.1656 kPa	118.81 ± 0.09
303.42 K, 0.1845 kPa	118.41 ± 0.09
303.42 K, 0.2036 kPa	118.03 ± 0.09
303.42 K, 0.2142 kPa	117.81 ± 0.09
303.42 K, 0.2253 kPa	117.56 ± 0.09
303.42 K, 0.2258 kPa	117.55 ± 0.09
303.42 K, 0.2668 kPa	116.7 ± 0.09
303.42 K, 0.2873 kPa	116.26 ± 0.09
303.42 K, 0.3067 kPa	115.81 ± 0.09
303.42 K, 0.3302 kPa	115.32 ± 0.09
303.42 K, 0.3443 kPa	114.98 ± 0.09
308.47 K, 0.1038 kPa	121.14 ± 0.09
308.47 K, 0.1251 kPa	120.73 ± 0.09
308.47 K, 0.146 kPa	120.32 ± 0.09
308.47 K, 0.1683 kPa	119.89 ± 0.09
308.47 K, 0.1877 kPa	119.52 ± 0.09
308.47 K, 0.207 kPa	119.14 ± 0.09
308.47 K, 0.2178 kPa	118.93 ± 0.09
308.47 K, 0.2293 kPa	118.7 ± 0.09
308.47 K, 0.2297 kPa	118.68 ± 0.09
308.47 K, 0.2717 kPa	117.84 ± 0.09
308.47 K, 0.2924 kPa	117.42 ± 0.09
308.47 K, 0.3124 kPa	116.99 ± 0.09
308.47 K, 0.3365 kPa	116.51 ± 0.09
308.47 K, 0.3509 kPa	116.21 ± 0.09
313.51 K, 0.1052 kPa	122.18 ± 0.09
313.51 K, 0.1271 kPa	121.79 ± 0.09
313.51 K, 0.1483 kPa	121.39 ± 0.09
313.51 K, 0.171 kPa	120.97 ± 0.09
313.51 K, 0.1907 kPa	120.6 ± 0.09
313.51 K, 0.2105 kPa	120.24 ± 0.09
313.51 K, 0.2214 kPa	120.03 ± 0.09
313.51 K, 0.2331 kPa	119.78 ± 0.09
313.51 K, 0.2338 kPa	119.8 ± 0.09
313.51 K, 0.2763 kPa	118.97 ± 0.09
313.51 K, 0.2975 kPa	118.58 ± 0.09
313.51 K, 0.318 kPa	118.15 ± 0.09
313.51 K, 0.3428 kPa	117.7 ± 0.09
313.51 K, 0.3574 kPa	117.4 ± 0.09
318.52 K, 0.1068 kPa	123.2 ± 0.09
318.52 K, 0.1291 kPa	122.82 ± 0.09
318.52 K, 0.1506 kPa	122.42 ± 0.09
318.52 K, 0.1737 kPa	122.03 ± 0.09
318.52 K, 0.1939 kPa	121.67 ± 0.09
318.52 K, 0.2139 kPa	121.32 ± 0.09
318.52 K, 0.2251 kPa	121.12 ± 0.09
318.52 K, 0.2374 kPa	120.89 ± 0.09
318.52 K, 0.2377 kPa	120.89 ± 0.09
318.52 K, 0.2812 kPa	120.11 ± 0.09
318.52 K, 0.3027 kPa	119.71 ± 0.09
318.52 K, 0.3235 kPa	119.3 ± 0.09
318.52 K, 0.349 kPa	118.86 ± 0.09
318.52 K, 0.3638 kPa	118.57 ± 0.1
323.53 K, 0.1085 kPa	124.22 ± 0.14
323.53 K, 0.1312 kPa	123.85 ± 0.14
323.53 K, 0.1531 kPa	123.46 ± 0.13
323.53 K, 0.1766 kPa	123.09 ± 0.13
323.53 K, 0.197 kPa	122.74 ± 0.12
323.53 K, 0.2175 kPa	122.4 ± 0.12
323.53 K, 0.2288 kPa	122.2 ± 0.12
323.53 K, 0.2413 kPa	121.97 ± 0.11
323.53 K, 0.2416 kPa	121.98 ± 0.11
323.53 K, 0.2859 kPa	121.21 ± 0.1
323.53 K, 0.308 kPa	120.83 ± 0.1
323.53 K, 0.3293 kPa	120.45 ± 0.1
323.53 K, 0.3551 kPa	120.01 ± 0.1
323.53 K, 0.3704 kPa	119.72 ± 0.09
